Experimental data from patent US20200254241A1, “ELECTRICAL METHOD OF DELIVERING HYALURONIC ACID THROUGH THE SKIN” (priority 2017, published 2020).

Key:
[1] = Skin images (confocal microscopy) for skin damage after the electrical treatment; parameters: species or system porcine; settings: for skin damage in skin images: electroporation condition 9 plus iontophoresis
Protocol: The combination of such parameters with iontophoresis at 0.2 mA/cm^2 for 20 min has also been corroborated (x 12 vs. passive diffusion).
9. Take photos to make a visual record of skin condition.
The skin images obtained provide more information about the possible skin damage produced by the electroporation treatment.

[2] = In vitro skin deposition of FL-HA (120 kDa) in Franz diffusion cells, fluorimetry; assay type: in vitro ADME, porcine
From the text: The effect of electroporation parameters on skin integrity and transport of hyaluronic acid (at 1% by weight in water) 120 kDa (HA) labeled with fluorescein into the permeabilzed skin was investigated in vitro using electroporation vs. its passive diffusion.
ii) porating mode (100-250 V, shorter pulse lengths and low number of pulses). Franz-diffusion cells were used to evaluate the in vitro delivery.
Porcine ear skin was used for the in vitro studies. It is accepted as a good model for the human skin barrier. Hairs were excised from the skin surface using clippers. The skin was “sliced” so as to obtain samples with an average thickness of 1.5 mm for all samples. Skin was frozen (−20° C.) or stored at 4° C. until use.
The FL-HA was quantified using by fluorimetry. The measurements were performed using a microplate reader. The excitation and emission wavelengths were 494 and 514 nm. The gain was adjusted to 80 in order to obtain better sensitivity of the samples. All samples were put in polystyrene 96-well plates and protected from the light until analysis. Furthermore, a calibration curve was included in every plate.
The aim of the experiments was to quantify penetration of FL-HA (120 kDa) into intact, electroporated porcine ear skin with and without iontophoresis) as a function of duration using the optimal treatment conditions identified in the previous part of the study. Electroporation treatment was performed either as (i) pre-treatment, where electroporation was performed before formulation application, or as (ii) co-treatment, where the elcetroporation treatment was performed simultaneou.sly in the presence of the formulation. All conditions were tested for 10 and 20 min.
3. Condition 9 (Voltage 250 V, Pulse length 15 ms, Pulse interval 50 ms and 9 Pulses), pre-treatment with electroporation
4. Condition 9 (Voltage 250 V, Pulse length 15 ms, Pulse interval 50 ms and 9 Pulses), simultaneous treatment with electroporation and formulation
7. Control: Application of an aqueous solution of FL-HA (120 kDa) formula on (1% w/w) to “untreated” skin. […]

For hyaluronic acid [HA 120 kDa], the “visual damage to the membrane (skin)” value ([1]; electroporation alone, 250 V, pulse length 15 ms, pulse interval 50 ms, <10 pulses) was “no visual damage”, the “skin damage in skin images” value [1] was “lack of significant damage to the skin” and the “skin damage in skin images” value ([1]; listed as 120 kDa FL-HA formulation) was “no damage was observed”. The “skin deposition, electroporation plus iontophoresis (CT+I) compared with electroporation alone (CT)” value ([2]; condition 9, iontophoresis 0.2 mA/cm^2 for 20 min, p<0.05, ANOVA, Student Newman Keuls test) was “statistically superior”, the “skin deposition, electroporation plus iontophoresis (CT+I) compared with electroporation alone (CT)” value ([2]; condition 9, iontophoresis 0.2 mA/cm^2 up to 10 min) was “not increasing the deposition” and the “increase in skin deposition vs. passive diffusion” value ([2]; electroporation combined with iontophoresis at 0.2 mA/cm^2 for 20 min) was 12 x.
